The values below come from ChEMBL document CHEMBL3217530, “Synthesis of coumarinchalcone hybrids and evaluation of their antioxidant and trypanocidal properties” (2013).

For test [1], the system named is Trypanosoma cruzi. Briefly: Antitrypanosomal activity against Trypanosoma cruzi Dm28c epimastigotes assessed as non-viable epimastigotes at 10 umol/L after 4 hrs by MTT assay relative to untreated control. It is filed as functional. For orientation: Tetrazolium assays rely on reduction of a dye to a coloured formazan, in cell work by metabolically active cells.
Test [2] can be described thus: Antioxidant activity assessed as hydroxyl radical scavenging activity after 5 mins by ESR spectroscopy. Further details: concentration or dose not given beside the values.
Test [3] concerns Trypanosoma cruzi. The test can be described thus: Antitrypanosomal activity against Trypanosoma cruzi Dm28c epimastigotes assessed as non-viable epimastigotes at 100 umol/L after 4 hrs by MTT assay relative to untreated control. It is filed as functional.
Test [4] in a line: Antioxidant activity assessed as compound compete with DMPO for hydroxyl radicals by ESR assay. It is filed as functional.

Calls of active or inactive are those of the source. The rule behind the calls is not given here.

On to `O=C(c1ccc(O)c(O)c1)c1cc2cc(Br)cc(O)c2oc1=O`, for which the Activity with Trypanosoma cruzi [1] turned out to be 9.5%; in test [2], 90.9%; in the test on Trypanosoma cruzi [3], 24.1%. In addition, in test [4], the result was Active.
With `CC1CS(=O)(=O)CCN1/N=C/c1ccc([N+](=O)[O-])o1` (stereo not drawn) [NIFURTIMOX], the Activity with Trypanosoma cruzi [1] was determined as 52.5%; with Trypanosoma cruzi [3] it was 100%.
Consider `O=C(c1ccc(O)c(O)c1)c1cc2c(O)cc(O)cc2oc1=O`, for which the outcome in the test with Trypanosoma cruzi [1] and with Trypanosoma cruzi [3] was inactive. For the same compound, the Activity in test [2] came out at 84.2%.
For `Cc1ccc2oc(=O)c(C(=O)c3ccc(O)c(O)c3)cc2c1`, the Activity in the test on Trypanosoma cruzi [1] was 27.9%; in test [2], 82.1%; with Trypanosoma cruzi [3], 47.9%.
On to `O=C(c1ccc(O)c(O)c1)c1cc2cc(O)ccc2oc1=O`, for which the results for the Activity (in the test on Trypanosoma cruzi [1]; in test [2]; with Trypanosoma cruzi [3]) were 18.9%, 84.8% and 46.4%, respectively.
As to `O=C(c1ccc(O)c(O)c1)c1cc2ccccc2oc1=O`, the Activity was determined as 23.8% in the test on Trypanosoma cruzi [1], 84.6% in test [2] and 38.7% in the test with Trypanosoma cruzi [3].
